Source: US20040208859A1, “Bile acid absorbent/adsorbent” (priority 2001, published 2004)

Legend:
Type in all cases: cell-based
[1] = tested on: Lactobacillus salivarius ssp. salicinius strain JCM1044; assay: activity of cholic acid uptake by Lactobacillus salivarius ssp. salicinius strain JCM1044 in the presence of an oligosaccharide; conditions: 14C-labeled cholic acid; oligosaccharide added at 15 minutes after reaction start; control without oligosaccharide unchanged
Protocol: (§1) Lactic acid bacteria were cultured in a commercially available MRS medium overnight. The composition of the medium was as follows:
(§2) The harvested cells were washed with a buffer (pH 7.0) of 50 mM potassium phosphate containing 1 mM magnesium sulfate, and then the washed cells were re-suspended in a buffer comprising the same composition. The resulting cell suspension was allowed to stand for 30 minutes to make the cell membrane of the cells the state of deactivation. Then, the cells were harvested by centrifuging the suspension and washed with a buffer (pH 7.0) of 50 mM potassium phosphate containing 1 mM magnesium sulfate. […]
(§3) To 96 μl of the cell suspension prepared as above, 2 μl of 6 mM cholic acid solution (cholic acid (chenodeoxycholic acid) labeled with ^14C, 16 mCi/mmol) was added, and after allowing the resulting suspension to stand for 15 minutes, 0.1 μl of 0.33 M oligosaccharide solution was added thereto, and the measurement of the activity of bile acid uptake was started. After a predetermined time, the reaction was stopped by adding 3 ml of a buffer of 100 mM potassium phosphate containing 100 mM […], and then the reaction solution was filtered through a cellulose acetate membrane (pore size: 0.45 μm), and the radioactivity left on the membrane was measured by a scintillation counter. […]

[2] = tested on: Bifidobacterium breve strain JCM1192; assay: activity of cholic acid uptake by Bifidobacterium breve strain JCM1192 in the presence of an oligosaccharide; conditions: 14C-labeled cholic acid; oligosaccharide added at 15 minutes after reaction start; control without oligosaccharide unchanged
Protocol: as §1, §2, §3

[3] = tested on: Bifidobacterium breve strain JCM1192; assay: activity of chenodeoxycholic acid uptake by Bifidobacterium breve strain JCM1192 in the presence of an oligosaccharide; conditions: for chenodeoxycholic acid concentration in the cells relative to that of the outside of the cells: 14C-labeled chenodeoxycholic acid, oligosaccharide added at 15 minutes after reaction start, maximum rise
Protocol: as §1
The harvested cells were washed with a buffer (pH 7.0) of 50 mM potassium phosphate containing 1 mM magnesium sulfate, and then the washed cells were re-suspended in a buffer comprising the same composition. The resulting cell suspension was allowed to stand for 30 minutes to make the cell membrane of the cells the state of deactivation. Then, the cells were harvested by centrifuging the suspension and washed with a buffer (pH 7.0) of 50 mM potassium phosphate containing 1 mM magnesium sulfate. Thereafter, the washed cells were re-suspended in a buffer comprising the same composition, and the cell suspension was adjusted so as to have the turbidity of 10.
To 96 μl of the cell suspension prepared as above, 2 μl of 6 mM cholic acid solution (cholic acid (chenodeoxycholic acid) labeled with ^14C, 16 mCi/mmol) was added, and after allowing the resulting suspension to stand for 15 minutes, 0.1 μl of 0.33 M oligosaccharide solution was added thereto, and the measurement of the activity of bile acid uptake was started. After a predetermined time, the reaction was stopped by adding 3 ml of a buffer of 100 mM potassium phosphate containing 100 mM […], and then the reaction solution was filtered through a cellulose acetate membrane (pore size: 0.45 μm), and the radioactivity left on the membrane was measured by a scintillation counter. In addition, as a control, the radioactivity of a sample adding no oligosaccharide was measured similarly.

[4] = tested on: Bifidobacterium infantis strain JCM1222; assay: cholic acid uptake by Bifidobacterium infantis strain JCM1222 in a nystose added-cell suspension
Protocol: as §1, §2, §3

Structure (SMILES): OC[C@H]1O[C@@](CO)(OC[C@@]2(O[C@H]3O[C@H](CO)[C@@H](O)[C@H](O)[C@H]3O)O[C@H](CO)[C@@H](O)[C@@H]2O)[C@@H](O)[C@@H]1O [1-kestose]
- cholic acid concentration in the cells relative to that of the outside of the cells [1]: about 13 times
- cholic acid concentration in the cells relative to that of the outside of the cells [2]: about 24 times
- chenodeoxycholic acid concentration in the cells relative to that of the outside of the cells [3]: about 15 times
- chenodeoxycholic acid concentration in the cells relative to outside at equilibrium after passive elimination ([3]; after oligosaccharide almost consumed (after 30 minutes), concentration came to equilibrium): about 2 times

Structure (SMILES): OC[C@H]1O[C@H](OC[C@H]2O[C@H](O[C@]3(CO)O[C@H](CO)[C@@H](O)[C@@H]3O)[C@H](O)[C@@H](O)[C@@H]2O)[C@H](O)[C@@H](O)[C@H]1O [raffinose]
- cholic acid concentration in the cells relative to that of the outside of the cells [1]: about 8 times
- cholic acid concentration in the cells relative to that of the outside of the cells [2]: about 30 times
- chenodeoxycholic acid concentration in the cells relative to that of the outside of the cells [3]: about 6 times

Structure (SMILES): OC[C@H]1O[C@@](CO)(OC[C@@]2(OC[C@@]3(O[C@H]4O[C@H](CO)[C@@H](O)[C@H](O)[C@H]4O)O[C@H](CO)[C@@H](O)[C@@H]3O)O[C@H](CO)[C@@H](O)[C@@H]2O)[C@@H](O)[C@@H]1O [nystose]
- cholic acid incorporation into the cells [4]: cholic acid was incorporated into the cells
